pEC50: −log10 of the molar value. Active and inactive are the calls of the source. No cut-off for these calls is given here.
Columns and labels:
[1] = organism: Homo sapiens; test: Inhibition of human neuronal nicotinic […] receptor at up to 10 uM
[2] = system: Human immunodeficiency virus 1; test: Antiviral activity against HIV1 NL4-3 infected in human MT2 cells assessed as inhibition of virus-induced cell death at 0.5 multiplicities of infection after 6 days; assay type: functional, organism-based; conditions: Human immunodeficiency virus 1, NL4-3, MT2, 144 h

## CCc1nn(CCO)c(CC)c1Oc1cc(C#N)cc(C#N)c1 [LERSIVIRINE]
[1]
  inhibition: inactive
[2]
  pEC50: 9.30
